Results published in BindingDB's records for doi:10.1021/jm058208o (Universidad Central De Venezuela, 2005).

Target: Falcipain-2 (Plasmodium falciparum, UniProt Q9NAW2)
Test: Falcipain Enzyme Inhibition Assay
Conditions: pH 5.5; 22 °C
Protocol: The substrate peptide terminating in AMC is processed by falcipain-2 with or without inhibitors, and the accumulation of AMC was monitored in a Labsystems Fluoroskan Ascent spectrofluorometer. IC50 values were determined from plots of percent activity over concentration using GraphPad Prism software.

Sequence of Falcipain-2 (Q9NAW2 whole entry): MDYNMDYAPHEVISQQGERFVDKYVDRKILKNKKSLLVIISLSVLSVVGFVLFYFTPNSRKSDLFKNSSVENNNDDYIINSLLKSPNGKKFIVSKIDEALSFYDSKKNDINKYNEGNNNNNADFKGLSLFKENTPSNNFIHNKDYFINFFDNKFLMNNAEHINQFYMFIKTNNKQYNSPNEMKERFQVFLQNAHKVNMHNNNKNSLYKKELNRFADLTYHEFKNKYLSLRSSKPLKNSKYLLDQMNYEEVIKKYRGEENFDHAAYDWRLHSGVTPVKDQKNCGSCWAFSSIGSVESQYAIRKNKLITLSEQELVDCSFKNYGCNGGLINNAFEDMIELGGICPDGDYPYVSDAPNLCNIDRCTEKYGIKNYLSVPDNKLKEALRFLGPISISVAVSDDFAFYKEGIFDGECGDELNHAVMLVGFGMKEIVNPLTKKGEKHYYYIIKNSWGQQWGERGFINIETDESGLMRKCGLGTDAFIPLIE

IC50	SMILES
3.4 µM	O=C(Nc1ccc(Cl)cc1)Nc1ccc(C(=O)/C=C/c2cccnc2)cc1 [3-(4-chlorophenyl)-1-{4-[(2E)-3-(pyridin-3-yl)prop-2-enoyl]phenyl}urea]
12.5 µM	COc1ccc(NC(=O)Nc2ccc(C(=O)/C=C/c3cccnc3)cc2)cc1 [3-(4-methoxyphenyl)-1-{4-[(2E)-3-(pyridin-3-yl)prop-2-enoyl]phenyl}urea]
0.058 µM	CC(C)C[C@H](NC(=O)[C@@H]1O[C@H]1C(=O)O)C(=O)NCCCCN=C(N)N [L-trans-3-Carboxyoxiran-2-carbonyl-L-leucylagmatine]
